Results taken from patent US12157730B2, “Heteroaryl derivative, method for producing same, and pharmaceutical composition comprising same as effective component” (VORONOI INC., priority 2019, dated 2024).

Columns and labels:
[1] = target: T1, Ba/F3 cell EGFR Exon20 ins FQEA (Homo sapiens, UniProt P00533, INS763FQEA); test: Ba/F3 cell proliferation suppression, EGFR Exon20 ins FQEA; assay type: cell-based; settings: 72 hours after treatment, CellTiter-Glo
T1 construct: expressed in transfected cells; host or cells: Ba/F3
Outline: (§1)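 Growth suppression determined as GI50 following 72 h exposure across 12 concentrations up to 50 um, with viability by luminescent ATP assay (CellTiter-Glo).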

PC9 = test: Lung cancer cell proliferation suppression, PC9; assay type: cell-based; settings: Homo sapiens, PC-9; 72 hours after treatment, CellTiter-Glo
Outline: as §1

[2] = target: T2, Ba/F3 cell HER2 Exon20 ins YVMA (Homo sapiens, UniProt P04626, INS775YVMA); test: Ba/F3 cell proliferation suppression, HER2 Exon20 ins YVMA; assay type: cell-based; settings: 72 hours after treatment, CellTiter-Glo
T2 construct: expressed in transfected cells; host or cells: Ba/F3
T2 sequence (P04626 with tags, fused parts or gaps INS775YVMA): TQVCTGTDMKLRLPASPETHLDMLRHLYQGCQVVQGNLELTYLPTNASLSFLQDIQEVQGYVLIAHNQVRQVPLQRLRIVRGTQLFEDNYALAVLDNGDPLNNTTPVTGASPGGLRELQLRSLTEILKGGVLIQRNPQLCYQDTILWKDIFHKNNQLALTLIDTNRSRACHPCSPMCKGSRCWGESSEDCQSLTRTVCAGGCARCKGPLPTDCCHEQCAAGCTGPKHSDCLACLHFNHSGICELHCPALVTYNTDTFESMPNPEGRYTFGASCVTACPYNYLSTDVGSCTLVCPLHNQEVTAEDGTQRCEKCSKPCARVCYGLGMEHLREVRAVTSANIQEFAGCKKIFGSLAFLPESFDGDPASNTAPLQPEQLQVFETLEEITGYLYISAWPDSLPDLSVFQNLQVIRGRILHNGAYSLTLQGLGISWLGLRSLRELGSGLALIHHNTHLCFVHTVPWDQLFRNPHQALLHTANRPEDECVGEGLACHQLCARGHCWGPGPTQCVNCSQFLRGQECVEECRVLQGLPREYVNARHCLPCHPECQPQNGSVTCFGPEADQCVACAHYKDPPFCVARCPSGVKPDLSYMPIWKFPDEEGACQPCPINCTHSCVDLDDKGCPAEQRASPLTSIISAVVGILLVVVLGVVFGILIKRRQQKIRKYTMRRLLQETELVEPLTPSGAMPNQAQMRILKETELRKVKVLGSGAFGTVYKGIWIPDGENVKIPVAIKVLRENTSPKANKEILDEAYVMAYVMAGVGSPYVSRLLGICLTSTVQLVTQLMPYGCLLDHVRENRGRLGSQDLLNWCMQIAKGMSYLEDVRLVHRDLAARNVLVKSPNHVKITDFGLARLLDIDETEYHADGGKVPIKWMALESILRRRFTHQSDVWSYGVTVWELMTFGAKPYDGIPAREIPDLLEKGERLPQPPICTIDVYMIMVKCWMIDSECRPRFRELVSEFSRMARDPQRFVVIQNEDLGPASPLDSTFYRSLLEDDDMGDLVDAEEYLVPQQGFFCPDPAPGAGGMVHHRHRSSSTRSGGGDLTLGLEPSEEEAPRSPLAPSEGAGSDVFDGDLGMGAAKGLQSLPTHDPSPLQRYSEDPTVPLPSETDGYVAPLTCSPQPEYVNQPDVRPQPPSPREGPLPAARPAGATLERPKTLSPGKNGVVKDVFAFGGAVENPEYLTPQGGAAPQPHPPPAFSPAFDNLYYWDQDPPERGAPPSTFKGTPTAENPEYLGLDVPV
Outline: as §1

[3] = target: T3, Ba/F3 cell EGFR Exon20 ins SVD (Homo sapiens, UniProt P00533, INS770SVD); test: Ba/F3 cell proliferation suppression, EGFR Exon20 ins SVD; assay type: cell-based; settings: 72 hours after treatment, CellTiter-Glo
T3 construct: expressed in transfected cells; host or cells: Ba/F3
Outline: as §1

[4] = tested on: Ba/F3 cell EGFR Exon20 ins H; test: Ba/F3 cell proliferation suppression, EGFR Exon20 ins H; assay type: cell-based; settings: 72 hours after treatment, CellTiter-Glo
Protocol: (§2) The following experiment was carried out to evaluate the suppression activity of the compounds according to the present invention against proliferation of Ba/F3 and lung cancer cells which express EGFR mutations.
(§3) Of the cancer cell lines expressing the EGFR gene, A549 was cultured after adding 10% FBS (HyClone) to DMEM (Invitrogen), and RPMI-1640 (Invitrogen) with 10% FBS was used for the other cancer cells. For the Ba/F3 cells, RPMI-1640 with 10% FBS and 5 ng/ml IL-3 (R&D Systems) was used. The transduced Ba/F3 cells were cultured by adding 1 ug/ml puromycin (Invitrogen) to the same medium.
(§4) 24 hours before treatment with the compounds, 3000 to 5000 cells were distributed into each well of a white clear bottom 96 well plate (Corning). The compounds were diluted in dimethylsulfoxide (dilution ratio 3:1; 12 concentrations total) and injected 0.5 ul each for a final concentration of 0.3 nM to 50 um. As for measurement of live cells, 72 hours after treatment with the compounds, a CellTiter-Glo luminescent cell-viability reagent (Promega) was used to store the cells at room temperature for 10 minutes, followed by measurement of luminescence using a reader (SynergyNeo, Biotek). Each test was repeated three times.
(§5) The result was calculated as a cell growth ratio (%) compared to a control. The program GraphPad Prism version 5.0 was used to draw the graphs and calculate the GI50 values.

Ba/F3 cell naive = test: Ba/F3 cell proliferation suppression, naive; assay type: cell-based; settings: Mus musculus, BaF3; 72 hours after treatment, CellTiter-Glo
Outline: as §1

[5] = Cancer cell proliferation suppression, A549; assay type: cell-based; settings: A459; 72 hours after treatment, CellTiter-Glo
Protocol: as §2, §3, §4, §5

[6] = target: T4, Ba/F3 cell EGFR Exon20 ins NPH (Homo sapiens, UniProt P00533, INS773NPH); test: Ba/F3 cell proliferation suppression, EGFR Exon20 ins NPH; assay type: cell-based
T4 construct: expressed in transfected cells; host or cells: Ba/F3
Outline: as §1

[7] = target: T5, Ba/F3 cell EGFR Exon20 ins ASV (Homo sapiens, UniProt P00533, INS769ASV); test: Ba/F3 cell proliferation suppression, EGFR Exon20 ins ASV; assay type: cell-based; settings: 72 hours after treatment, CellTiter-Glo
T5 construct: expressed in transfected cells; host or cells: Ba/F3
Outline: as §1

PC9GR = test: Lung cancer cell proliferation suppression, PC9GR; assay type: cell-based; settings: 72 hours after treatment, CellTiter-Glo
Outline: as §1

[8] = target: T6, Ba/F3 cell EGFR L858R/T790M (Homo sapiens, UniProt P00533, L858R/T790M); test: Ba/F3 cell proliferation suppression, EGFR L858R/T790M; assay type: cell-based; settings: 72 hours after treatment, CellTiter-Glo
T6 construct: expressed in transfected cells; host or cells: Ba/F3
Outline: as §1

H1975 = test: Lung cancer cell proliferation suppression, H1975; assay type: cell-based; settings: Homo sapiens, NCI-H1975; 72 hours after treatment, CellTiter-Glo
Outline: as §1

[9] = tested on: scanMAX kinase panel (EGFR mutant, ERBB2, ERBB4); test: DiscoverX (eurofin) KINOMEscan (scanMAX platform) kinase profiling; assay type: binding
Source text: It was confirmed that the above example compounds had high selectivity against EGFR series genes. Accordingly, these can be useful in the treating of cancers wherein this kinase is expressed. In particular, as they have substantially outstanding lung cancer cell line proliferation suppression, they can be useful in the treatment of lung cancer, breast cancer, and brain cancer.

Ba/F3 cell EGFR L858R = target: T7, Ba/F3 cell EGFR L858R (Homo sapiens, UniProt P00533, L858R); test: Ba/F3 cell proliferation suppression, EGFR L858R; assay type: cell-based; settings: 72 hours after treatment, CellTiter-Glo
T7 construct: expressed in transfected cells; host or cells: Ba/F3
Outline: as §1

[10] = tested on: Ba/F3 cell EGFR Del19/T790M; test: Ba/F3 cell proliferation suppression, EGFR Del19/T790M; assay type: cell-based; settings: 72 hours after treatment, CellTiter-Glo
Outline: as §1

GI50 [1]: < 0.05 µM
GI50 (PC9): 1 nM
GI50 [2]: < 0.05 µM
GI50 [3]: < 0.05 µM
GI50 [4]: < 0.05 µM
GI50 (Ba/F3 cell naive): ≥ 5 µM
GI50 [5]: > 15000 nM
GI50 ([6]; 72 hours after treatment, CellTiter-Glo): < 0.05 µM
Ba/F3 (NPH) Activity ([6]; GI50 class, Ba/F3 cell line with NPH inserted at Exon20 of EGFR, 72 hours): A (GI50 < 50 nM)
GI50 [7]: < 0.05 µM
GI50 (PC9GR): 20 nM
GI50 [8]: < 0.05 µM
GI50 (H1975): 28 nM
% inhibition of scanMAX Kinase profiling ([9]; EGFR(E746-A750del)): 100%
% inhibition of scanMAX Kinase profiling ([9]; EGFR(G719C)): 100%
% inhibition of scanMAX Kinase profiling ([9]; EGFR(G719S)): 100%
% inhibition of scanMAX Kinase profiling ([9]; EGFR(L747-E749del, A750P)): 97%
% inhibition of scanMAX Kinase profiling ([9]; EGFR(L747-T751del.Sins)): 100%
% inhibition of scanMAX Kinase profiling ([9]; EGFR(L858R)): 100%
% inhibition of scanMAX Kinase profiling ([9]; EGFR(L858R.T790M)): 96%
% inhibition of scanMAX Kinase profiling ([9]; EGFR(L861q)): 100%
% inhibition of scanMAX Kinase profiling ([9]; EGFR(S752-I759del)): 100%
% inhibition of scanMAX Kinase profiling ([9]; EGFR(T790M)): 99%
% inhibition of scanMAX Kinase profiling ([9]; ERBB2): 100%
% inhibition of scanMAX Kinase profiling ([9]; ERBB4): 100%
suppression activity against the EGFR mutant and ERBB2 and ERBB4 ([9]; KINOMEscan scanMAX kinase profiling): high suppression activity
GI50 (Ba/F3 cell EGFR L858R): < 0.05 µM
GI50 [10]: < 0.05 µM
Compound: C=CC(=O)Nc1cc(Nc2cc(N3OCC[C@@H]3c3ccccc3)ncn2)c(OC)cc1N(C)CCN(C)C [Example 4]
